According to PubChem BioAssay AID504778 (National Center for Advancing Translational Sciences (NCATS), 2011):

Test system: Caco-2 monolayer, B->A permeability, LC-MS/MS
Experiment: Enhancers of SMN2 Splice Variant Expression: Caco-2 Permeability Profiling
Settings: hits give high values
Excerpt: Spinal muscular atrophy (SMA) is caused by insufficient levels of the survival motor neuron protein SMN. The SMN locus on chromosome 5q13 contains two inverted copies of SMN called SMN1 and SMN2 which are 99% identical at the amino acid level. SMN1 is a fully functional protein and SMN2 skips exon 7 90% of the time. Skipping of exon 7 produces non-functional protein product. 10% of the SMN2 protein includes exon 7 and is fully functional. In the SMA disease state, mutations in the SMN1 locus are the cause of the disease state. Because only 10% of SMN2 is of the fully functional form, it is not sufficient to overcome the deficiency produced by the loss of the SMN1 product. A therapy that either increase the amount of SMN2 product made or to increase the inclusion of exon 7 has been proposed for the treatment of SMA. After screening and medicinal chemistry efforts a probe was identified and is further characterized in this in vitro ADME assay. This Caco-2 permeability assay predicts the in vivo absorption of the lead across the intestinal lining by using a Caco-2 cell line and measuring the lead's rate of transport […]. […] NIH Chemical Genomics Center [NCGC] NIH Molecular Libraries Probe Production centers Network [MLPCN] […]
1. […] The T0, LY and T90, LY plates are read by FlexStation 3 at excitation of 485 nm and emission of 535 nm to determine LY permeability. […]

Papp B->A: 12 10^-6 cm/s
Compound: O=C(O)C1CCN(c2nc(-c3ccc(Br)cc3)cs2)CC1
